Counter-ions that a name gives are not always drawn.

The term melting point denotes the temperature, or range, at which the solid turns liquid.

T1 sequence (Q9UBS5 1-844 isoform Q9UBS5-2): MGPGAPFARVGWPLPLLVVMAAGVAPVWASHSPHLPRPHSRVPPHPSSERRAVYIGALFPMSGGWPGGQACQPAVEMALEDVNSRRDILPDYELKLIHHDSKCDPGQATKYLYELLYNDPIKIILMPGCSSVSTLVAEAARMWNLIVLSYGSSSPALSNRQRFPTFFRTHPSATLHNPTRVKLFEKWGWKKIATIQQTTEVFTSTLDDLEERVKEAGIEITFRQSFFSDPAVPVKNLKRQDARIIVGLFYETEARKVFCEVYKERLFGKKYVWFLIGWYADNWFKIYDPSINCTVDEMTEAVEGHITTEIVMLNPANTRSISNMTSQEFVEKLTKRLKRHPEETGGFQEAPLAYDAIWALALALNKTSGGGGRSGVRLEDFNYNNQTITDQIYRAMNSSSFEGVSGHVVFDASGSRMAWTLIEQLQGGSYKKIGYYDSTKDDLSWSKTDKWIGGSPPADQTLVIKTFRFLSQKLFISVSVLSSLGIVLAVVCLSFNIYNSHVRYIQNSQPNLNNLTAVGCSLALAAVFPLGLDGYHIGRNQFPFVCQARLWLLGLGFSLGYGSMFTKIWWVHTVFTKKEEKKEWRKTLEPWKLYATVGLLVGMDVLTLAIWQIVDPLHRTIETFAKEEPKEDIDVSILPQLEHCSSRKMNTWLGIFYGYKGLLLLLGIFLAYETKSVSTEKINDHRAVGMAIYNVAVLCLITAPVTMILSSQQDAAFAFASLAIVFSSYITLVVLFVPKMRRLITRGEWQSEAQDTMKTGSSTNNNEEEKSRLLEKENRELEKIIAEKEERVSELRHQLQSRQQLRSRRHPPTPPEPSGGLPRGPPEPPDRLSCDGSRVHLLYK
T1 sequence (O88871 41-940): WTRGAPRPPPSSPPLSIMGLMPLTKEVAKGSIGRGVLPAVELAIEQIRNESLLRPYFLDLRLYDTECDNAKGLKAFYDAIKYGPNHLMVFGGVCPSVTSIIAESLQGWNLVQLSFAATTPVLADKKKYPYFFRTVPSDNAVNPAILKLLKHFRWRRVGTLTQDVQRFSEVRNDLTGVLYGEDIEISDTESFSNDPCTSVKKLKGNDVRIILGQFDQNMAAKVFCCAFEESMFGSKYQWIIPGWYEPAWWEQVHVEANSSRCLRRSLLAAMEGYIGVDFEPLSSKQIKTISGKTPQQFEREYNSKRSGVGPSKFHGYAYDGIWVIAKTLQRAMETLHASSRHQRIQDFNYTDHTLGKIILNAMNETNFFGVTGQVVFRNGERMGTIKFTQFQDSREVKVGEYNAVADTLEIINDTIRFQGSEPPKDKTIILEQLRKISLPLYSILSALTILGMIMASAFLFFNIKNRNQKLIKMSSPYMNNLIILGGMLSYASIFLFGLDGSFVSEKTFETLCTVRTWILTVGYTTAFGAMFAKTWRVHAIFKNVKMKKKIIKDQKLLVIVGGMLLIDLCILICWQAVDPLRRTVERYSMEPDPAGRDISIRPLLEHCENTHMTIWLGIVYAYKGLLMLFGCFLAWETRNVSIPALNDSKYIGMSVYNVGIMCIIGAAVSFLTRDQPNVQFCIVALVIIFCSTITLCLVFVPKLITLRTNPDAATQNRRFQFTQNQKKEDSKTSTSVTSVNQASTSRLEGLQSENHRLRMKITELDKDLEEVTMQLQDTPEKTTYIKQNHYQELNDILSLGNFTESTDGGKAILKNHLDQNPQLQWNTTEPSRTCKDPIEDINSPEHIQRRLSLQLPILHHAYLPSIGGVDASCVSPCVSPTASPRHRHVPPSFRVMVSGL

Tested on in the first series: not given
Assay: not given
Settings: not given
In the case of `Cc1ncc(-c2ccc(Cl)cc2)c(NC2CCCC2)n1`, the melting point was in the range of 103 to 106 °C. With `Cc1ncc(-c2cnc(C(F)(F)F)nc2)c(NC2CCCC2)n1` (as salt: hydrochloride) [Example 54, N-cyclopentyl-2-methyl-2′-(trifluoromethyl)-5,5′-bipyrimidin-4-amine hydrochloride], the melting point lay in the range of 249 to 254 °C.

Compound `Cc1ccc(-c2c(NC3CCCC3)nc(C)nc2NC2CCCC2)cc1` [Example 20, 5-(4-methylphenyl)-N,N′-dicyclopentyl-2-methylpyrimidine-4,6-diamine] yielded a melting point of 115 to 128 °C. The same measure, in the same setting: for `Cc1cccc(-c2c(NC3CCCC3)nc(C)nc2NC2CCCC2)c1` [Example 22, 5-(3-methylphenyl)-N,N′-dicyclopentyl-2-methylpyrimidine-4,6-diamine] the value was 95 to 98 °C; for `Cc1ncc(-c2ccc(C(=O)O)cc2)c(NC2CCCC2)n1` [Example 27, 4-[4-(cyclopentylamino)-2-methylpyrimidin-5-yl]benzoic acid], 252 to 255 °C; for `Cc1ncc(-c2cccc(C(F)(F)F)c2)c(NC2CCCC2)n1` [Example 29, N-cyclopentyl-2-methyl-5-[3-(trifluoromethyl)phenyl]pyrimidin-4-amine], 105 to 108 °C. Still for that read-out and setting: next, `Cc1ncc(-c2cc(C(F)(F)F)cc(C(F)(F)F)c2)c(NC2CCCC2)n1` [Example 30, 5-[3,5-bis(trifluoromethyl)phenyl]-N-cyclopentyl-2-methylpyrimidin-4-amine]: 124 to 126 °C; `COc1ccc(-c2cnc(C)nc2NC2CCCC2)cc1OC` [Example 31, N-cyclopentyl-5-(3,4-dimethoxyphenyl)-2-methylpyrimidin-4-amine]: 143 to 145 °C.

With `Cc1ncc(-c2ccc(C(N)=O)cc2)c(NC2CCCC2)n1` [Example 32, 4-[4-(cyclopentylamino)-2-methylpyrimidin-5-yl]benzamide], the melting point was 226 to 228 °C. Same read-out and setting: next, `Cc1ncc(-c2ccc([N+](=O)[O-])cc2)c(NC2CCCC2)n1` [Example 33, N-cyclopentyl-2-methyl-5-(4-nitrophenyl)pyrimidin-4-amine]: 185 to 188 °C. Same read-out and setting: next, `Cc1ncc(-c2ccc(C#N)cc2)c(NC2CCCC2)n1` [Example 36, 4-[4-(cyclopentylamino)-2-methylpyrimidin-5-yl]benzonitrile]: 176 to 180 °C; `Cc1ncc(-c2ccc(F)cc2)c(NC2CCCC2)n1` [Example 39, N-cyclopentyl-5-(4-fluorophenyl)-2-methylpyrimidin-4-amine]: 83 to 86 °C. On the same count and under the same terms, for `Cc1ncc(-c2ccc(C(F)(F)F)cc2C(F)(F)F)c(NC2CCCC2)n1` [Example 41, 5-[2,4-bis(trifluoromethyl)phenyl]-N-cyclopentyl-2-methylpyrimidin-4-amine] the value was 128 to 132 °C. Take `Cc1ncc(-c2ccccc2C(F)(F)F)c(NC2CCCC2)n1` [Example 44, N-cyclopentyl-2-methyl-5-[2-(trifluoromethyl)phenyl]pyrimidin-4-amine]: the melting point fell in the range of 80 to 84 °C. On the same count and under the same terms, next, `Cc1ncc(-c2ccc(C(F)(F)F)cc2Cl)c(NC2CCCC2)n1` [Example 45, 5-[2-chloro-4-(trifluoromethyl)phenyl]-N-cyclopentyl-2-methylpyrimidin-4-amine]: 120 to 132 °C; `CC(=O)Nc1ccc(-c2cnc(C)nc2NC2CCCC2)cc1` [Example 46, N-{4-[4-(cyclopentylamino)-2-methylpyrimidin-5-yl]phenyl}acetamide]: 203 to 210 °C; `Cc1ncc(-c2ccc(C(F)(F)F)cn2)c(NC2CCCC2)n1` [Example 47, Cyclopentyl-[2-methyl-5-(5-trifluoromethyl-pyridin-2-yl)-pyrimidin-4-yl]-amine]: 130 to 133 °C. On the same count and under the same terms, for `Cc1ncc2c3ccc(C(F)(F)F)cc3n(C3CCCC3)c2n1` [Example 48, 9-cyclopentyl-2-methyl-7-(trifluoromethyl)-9H-pyrimido[4,5-b]indole] the value was 133 to 134 °C. On the same count and under the same terms, for `Cc1ncc(-c2ccc3nonc3c2)c(NC2CCCC2)n1` [Example 49, 5-(2,1,3-benzoxadiazol-5-yl)-N-cyclopentyl-2-methylpyrimidin-4-amine] the value was 165 to 167 °C; for `C#Cc1nc(C)nc(NC2CCCC2)c1-c1ccc(C(F)(F)F)cc1` [Example 50, N-cyclopentyl-6-ethynyl-2-methyl-5-[4-(trifluoromethyl)phenyl]pyrimidin-4-amine], 159 to 162 °C; for `Cc1ncc(-c2ccc(P(=O)(O)O)cc2)c(NC2CCCC2)n1` [Example 51, {4-[4-(cyclopentylamino)-2-methylpyrimidin-5-yl]phenyl}-phosphonic acid], 254 to 259 °C. Turning to `Cc1ncc2c3ccc(C(F)(F)F)cc3c(=O)n(C3CCCC3)c2n1` [Example 53, 5-cyclopentyl-3-methyl-8-(trifluoromethyl)pyrimido[4,5-c]-isoquinolin-6(5H)-one], the melting point is 137 to 141 °C. `Cc1ncc(C#Cc2ccc(C(F)(F)F)cc2)c(NC2CCCC2)n1` [Example 55, N-cyclopentyl-2-methyl-5-{[4-(trifluoromethyl)phenyl]ethynyl}-pyrimidin-4-amine]: the melting point is 90 to 93 °C.

As to `Cc1ncc(-c2ccc(C(F)(F)F)cc2)c(NC2CCCCNC2=O)n1` (centres unmarked) [Example 62, 3-[2-Methyl-5-(4-trifluoromethyl-phenyl)-pyrimidin-4-ylamino]-azepan-2-one], the melting point was 191 to 196 °C. Still for that read-out and setting: for `CCc1nc(NC2CCCC2)c(-c2ccccc2)c(NC2CCCC2)n1` [Example 65, N,N′-Dicyclopentyl-2-ethyl-5-phenyl-pyrimidine-4,6-diamine] the value was 70 to 71 °C.

The next series has as its target T1, human GABA-B1b/rat GABA-B2 (UniProt O88871+Q9UBS5).
T1 construct: expressed in transfected cells; host or cells: CHO-K1 cell line (membranes)
The experiment in a line: GTPγ[35S] binding, enhancement of GABA-induced binding. Type of series: biochemical. Particulars: 1 μM of GABA, 2.5 μM of Cpd; relative to basal activity. On the procedure: In the functional GTP(γ)^35S assay (Lorenzen A, Fuss M, Vogt H, Schwabe U. Measurement of guanine nucleotide-binding protein activation by A1 adenosine receptor agonists in bovine brain membranes. Stimulation of guanosine-5′-O-(3-[^35S]thio)triphosphate binding. Mol. Pharmacol. 1993; 44:115-123) the agents of the invention enhance the GABA-induced GTP( ? )^35S binding at recombinant GABAB receptors with EC50 values of about 0.1 μM to about 50 μM.
GTPγ[^35S] binding. The assay mixtures contained 10 μg f membranes from a human GABA-B1b/rat GABA-B2 expressing CHO-K1 cell line in 50 mM Tris-HCl buffer, pH 7.7; 10 mM MgCl2; 1.8 mM CaCl2; 100 mM NaCl 30 μM guanosine 5′-diphosphate (30 μM; Sigma), 0.2 nM [^35S]GTP(γ)S, and test compounds (Urwyler et al, 2001). 96-well Packard Pico-plates (300 μl volume) were used. Non-specific binding was measured in the presence of unlabelled GTP(γ)S (10 μM, Sigma). The reagents were incubated for 40 min at room temperature and subsequently filtered (Packard unifilter-GF/C). After two washes with assay buffer as above the plates were dried for one hour at 50° C., 50 μl of scintillation solution (Microscint) was added and the radioactivity counted. For data analysis, non-specific binding was subtracted from all the other values; the compound effects were expressed relative to basal activity. Prism 3.0 software (Graph Pad software, San Diego, Calif.) was used for all data calculations. (Urwyler S, Mosbacher J, Lingenhoehl K, Heid J, Hofstetter K, Froestl W, Bettler B, Kaupmann K. Mol. Pharmacol. 2001, 60:963-71).
For `Cc1ncc(-c2ccc(C(F)(F)F)cc2)c(NC2CCCCNC2=O)n1` (centres unmarked) [Example 62, 3-[2-Methyl-5-(4-trifluoromethyl-phenyl)-pyrimidin-4-ylamino]-azepan-2-one], the “Biological activity (%)” value turned out to be 77%.

Staying with this series, now noted: 1 μM of GABA, 25 μM of Cpd; relative to basal activity.
Take `Cc1ncc(-c2ccc(C(F)(F)F)cc2)c(NC2CCCCNC2=O)n1` (centres unmarked) [Example 62, 3-[2-Methyl-5-(4-trifluoromethyl-phenyl)-pyrimidin-4-ylamino]-azepan-2-one]: the “Biological activity (%)” value is 129%.

The same series, now with this note: 20 μM of GABA, 2.5 μM of Cpd; relative to basal activity.
Turning to `Cc1ncc(-c2ccc(C(F)(F)F)cc2)c(NC2CCCCNC2=O)n1` (centres unmarked) [Example 62, 3-[2-Methyl-5-(4-trifluoromethyl-phenyl)-pyrimidin-4-ylamino]-azepan-2-one], the “Biological activity (%)” value is 159%.

The series is the same for the next values; noted with them: 20 μM of GABA, 25 μM of Cpd; relative to basal activity.
Take `Cc1ncc(-c2ccc(C(F)(F)F)cc2)c(NC2CCCCNC2=O)n1` (centres unmarked) [Example 62, 3-[2-Methyl-5-(4-trifluoromethyl-phenyl)-pyrimidin-4-ylamino]-azepan-2-one]: the “Biological activity (%)” value turned out to be 192%.

The values are drawn from patent publication US20100179127A1, “PYRIMIDINE DERIVATIVES” (priority 2005, published 2010).
